# Experimental data as given in article PMC5358098 (ACS chemical neuroscience, 2016).
# Like-named read-outs stand apart in the source and are kept apart here.
# Columns and labels:
# CB1R [1] = target: T1, CB1R (Homo sapiens, UniProt P21554); type: cell-based; conditions: HEK293A, 30 min
# CB1R [2] = target: T1, CB1R; type: cell-based; conditions: Neuro2a, 30 min
# CB1R [3] = target: T1, CB1R; experiment: cell-based; type: cell-based
# CB1R [4] = target: T2, CB1R (Mus musculus, UniProt P47746); type: cell-based; conditions: Neuro2a, 10 min
# CB1R [5] = target: T1, CB1R; type: cell-based; conditions: HEK293A, 10 min
# CB1R [6] = target: T2, CB1R; type: cell-based; conditions: Neuro2a, 10 min; remark: listed apart in the source
# CB1R [7] = target: T1, CB1R; experiment: cell-based; type: cell-based; remark: listed apart in the source
# CB1R [8] = target: T1, CB1R; experiment: [3H]SR141716A equilibrium binding, hCB1R CHO cell membranes
# CB1R [9] = target: T1, CB1R; experiment: cell-based
# CB1R [10] = type: cell-based; conditions: mean of data for the pathway (Table 2), all cells and orthosteric ligands
# CB1R [11] = type: cell-based; conditions: mean of data for the pathway (Table 3), all cells and orthosteric ligands
# hCB1R = experiment: Operational model bias analysis, HEK293A cells; type: cell-based, human; conditions: HEK293A; for ΔΔlog R β-arrestin1/cAMP / ΔΔlog R β-arrestin1/pPLCβ3: reference 2-AG + GAT100
# CB1R [12] = target: T2, CB1R; experiment: Operational model bias analysis, Neuro2a cells; type: cell-based; conditions: for ΔΔlog R β-arrestin1/pPLCβ3: reference 2-AG + GAT100
# CB1R [13] = target: T2, CB1R; conditions: STHdh^Q7/Q7; 1 μM + 500 nM CP55,940
# CB1R [14] = system: CB1R
# CB1R [15] = conditions: cited from earlier work
# CB1R [16] = target: T2, CB1R; experiment: Operational model bias analysis, STHdh^Q7/Q7 cells; conditions: STHdh^Q7/Q7
# [17] = 500 nM 2-AG + 1 nM-10 μM allosteric modulator
# [18] = 500 nM AEA + 1 nM-10 μM allosteric modulator
# [19] = 500 nM CP55,940 + 1 nM-10 μM allosteric modulator
# T2 sequence (P47746 whole entry): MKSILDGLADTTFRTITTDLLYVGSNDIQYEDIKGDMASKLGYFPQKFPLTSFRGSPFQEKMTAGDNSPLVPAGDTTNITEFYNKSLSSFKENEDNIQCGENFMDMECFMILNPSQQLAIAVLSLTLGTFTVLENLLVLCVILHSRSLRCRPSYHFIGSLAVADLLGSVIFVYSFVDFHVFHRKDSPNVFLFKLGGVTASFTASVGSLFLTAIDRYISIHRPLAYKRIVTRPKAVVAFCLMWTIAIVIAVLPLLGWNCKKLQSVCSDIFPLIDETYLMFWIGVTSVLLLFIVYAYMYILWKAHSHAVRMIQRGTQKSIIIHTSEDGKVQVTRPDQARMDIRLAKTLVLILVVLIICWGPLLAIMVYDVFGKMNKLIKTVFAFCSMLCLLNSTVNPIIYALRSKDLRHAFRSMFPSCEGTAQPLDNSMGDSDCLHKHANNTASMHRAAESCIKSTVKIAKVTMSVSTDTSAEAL
# T1 sequence (P21554 whole entry): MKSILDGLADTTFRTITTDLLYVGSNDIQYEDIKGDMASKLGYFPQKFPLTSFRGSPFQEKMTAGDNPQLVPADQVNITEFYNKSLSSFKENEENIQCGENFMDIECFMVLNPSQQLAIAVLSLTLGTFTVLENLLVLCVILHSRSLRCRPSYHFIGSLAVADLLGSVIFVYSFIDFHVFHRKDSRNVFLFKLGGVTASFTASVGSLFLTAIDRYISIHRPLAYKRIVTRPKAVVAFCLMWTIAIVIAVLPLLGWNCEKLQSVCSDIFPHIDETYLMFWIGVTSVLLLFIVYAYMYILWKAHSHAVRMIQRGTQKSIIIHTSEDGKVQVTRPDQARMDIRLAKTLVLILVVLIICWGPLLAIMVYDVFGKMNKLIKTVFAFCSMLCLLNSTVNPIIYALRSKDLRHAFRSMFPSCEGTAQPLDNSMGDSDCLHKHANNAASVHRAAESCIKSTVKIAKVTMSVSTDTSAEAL
structure (smiles),measurement,setting,value
"CCc1c(C(=O)NCCc2ccc(N3CCCCC3)cc2)[nH]c2ccc(N=C=S)cc12 [GAT100, 3-ethyl-5-isothiocyanato-N-(4-(piperidin-1-yl)phenethyl)-1H-indole-2-carboxamide]","Emax (BRETEff), 2-AG",CB1R [1]; 1 nM-10 μM 2-AG + 1 μM NAM,0.29 ± 0.01
same,"Emax (BRETEff), AEA",CB1R [1]; 1 nM-10 μM AEA + 1 μM NAM,0.37 ± 0.03
same,"Emax (BRETEff), CP55,940","CB1R [1]; 1 nM-10 μM CP55,940 + 1 μM NAM",0.30 ± 0.04
same,"Emax (BRETEff), 2-AG",CB1R [2]; 1 nM-10 μM 2-AG + 1 μM NAM,0.25 ± 0.03
same,"Emax (BRETEff), AEA",CB1R [2]; 1 nM-10 μM AEA + 1 μM NAM,0.29 ± 0.02
same,"Emax (BRETEff), CP55,940","CB1R [2]; 1 nM-10 μM CP55,940 + 1 μM NAM",0.34 ± 0.02
same,"Emax pPLCβ3/Total PLCβ3, 2-AG","CB1R [3]; HEK293A, 1 nM-10 μM 2-AG + 1 μM NAM, 10 min",0.39 ± 0.02
same,"Emax pPLCβ3/Total PLCβ3, AEA","CB1R [3]; HEK293A, 1 nM-10 μM AEA + 1 μM NAM, 10 min",0.36 ± 0.01
same,"Emax pPLCβ3/Total PLCβ3, CP55,940","CB1R [3]; HEK293A, 1 nM-10 μM CP55,940 + 1 μM NAM, 10 min",0.39 ± 0.01
same,IC50,"CB1R [3]; IC50, PLCβ3 phosphorylation, CP55,940",76.6 nM
same,"Emax pPLCβ3/Total PLCβ3, 2-AG",CB1R [4]; 1 nM-10 μM 2-AG + 1 μM NAM,0.34 ± 0.02
same,"Emax pPLCβ3/Total PLCβ3, AEA",CB1R [4]; 1 nM-10 μM AEA + 1 μM NAM,0.37 ± 0.02
same,"Emax pPLCβ3/Total PLCβ3, CP55,940","CB1R [4]; 1 nM-10 μM CP55,940 + 1 μM NAM",0.39 ± 0.02
same,"Emax pERK1/2/Total ERK1/2, 2-AG",CB1R [5]; 1 nM-10 μM 2-AG + 1 μM NAM,0.33 ± 0.02
same,"Emax pERK1/2/Total ERK1/2, AEA",CB1R [5]; 1 nM-10 μM AEA + 1 μM NAM,0.31 ± 0.02
same,"Emax pERK1/2/Total ERK1/2, CP55,940","CB1R [5]; 1 nM-10 μM CP55,940 + 1 μM NAM",0.29 ± 0.02
same,"Emax pERK1/2/Total ERK1/2, 2-AG",CB1R [6]; 1 nM-10 μM 2-AG + 1 μM NAM,0.31 ± 0.02
same,"Emax pERK1/2/Total ERK1/2, AEA",CB1R [6]; 1 nM-10 μM AEA + 1 μM NAM,0.28 ± 0.02
same,"Emax pERK1/2/Total ERK1/2, CP55,940","CB1R [6]; 1 nM-10 μM CP55,940 + 1 μM NAM",0.33 ± 0.02
same,IC50,CB1R [7],741 nM
same,effect on cAMP levels in the absence of orthosteric agonists (inverse agonism),"CB1R [7]; HEK-CRE, 10 μM forskolin + 1 nM to 10 μM compound alone, 4 h",did not affect cAMP accumulation
same,IC50,"CB1R [7]; IC50, cAMP, CP55,940",834 nM
same,"Emax, cAMP (pathway ligand bias summary)","CB1R [7]; mean of data for the pathway (Table 4), cAMP Emax divided by 100",0.16 ± 0.04
same,EC50,CB1R [8],410 nM
same,[3H]SR141716A binding at 10 μM,CB1R [8]; 10 μM,did not completely abrogate
same,fold greater potency than Org27569 as inhibitor of [3H]SR141716A binding,CB1R [8]; EC50 ratio,~ 6 fold
same,Emax,"CB1R [8]; read-out: Emax, [3H]SR141716A binding",22.6%
same,IC50,CB1R [9],35.8 nM
same,"Emax, β-arrestin1 (pathway ligand bias summary)","CB1R [9]; mean of data for the pathway (Table 1), all cells and orthosteric ligands",0.30 ± 0.01
same,"Emax, PLCβ3 (pathway ligand bias summary)",CB1R [10],0.38 ± 0.01
same,"Emax, ERK (pathway ligand bias summary)",CB1R [11],0.32 ± 0.01
same,BF β-arrestin1/cAMP,hCB1R; [17],1.0
same,BF β-arrestin1/pERK1/2,hCB1R; [17],1.0
same,BF β-arrestin1/pPLCβ3,hCB1R; [17],1.0
same,ΔΔlog R β-arrestin1/cAMP,hCB1R; [17],0.0 ± 0.1
same,ΔΔlog R β-arrestin1/pPLCβ3,hCB1R; [17],0.0
same,BF β-arrestin1/cAMP,hCB1R; [18],0.8
same,BF β-arrestin1/pERK1/2,hCB1R; [18],0.3
same,BF β-arrestin1/pPLCβ3,hCB1R; [18],0.1
same,ΔΔlog R β-arrestin1/cAMP,hCB1R; [18],–0.1 ± 0.1
same,ΔΔlog R β-arrestin1/pPLCβ3,hCB1R; [18],–1.2 ± 0.8
same,BF β-arrestin1/cAMP,hCB1R; [19],1.3
same,BF β-arrestin1/pERK1/2,hCB1R; [19],0.6
same,BF β-arrestin1/pPLCβ3,hCB1R; [19],0.6
same,ΔΔlog R β-arrestin1/cAMP,hCB1R; [19],0.1 ± 0.1
same,ΔΔlog R β-arrestin1/pPLCβ3,hCB1R; [19],–0.2 ± 0.1
same,BF β-arrestin1/pERK1/2,CB1R [12]; [17],1.0
same,BF β-arrestin1/pPLCβ3,CB1R [12]; [17],1.0
same,ΔΔlog R β-arrestin1/pPLCβ3,CB1R [12]; [17],0.0 ± 0.1
same,BF β-arrestin1/pERK1/2,CB1R [12]; [18],7.9
same,BF β-arrestin1/pPLCβ3,CB1R [12]; [18],15.8
same,ΔΔlog R β-arrestin1/pPLCβ3,CB1R [12]; [18],1.2 ± 0.1
same,BF β-arrestin1/pERK1/2,CB1R [12]; [19],10.0
same,BF β-arrestin1/pPLCβ3,CB1R [12]; [19],3.2
same,ΔΔlog R β-arrestin1/pPLCβ3,CB1R [12]; [19],0.5 ± 0.2
same,"effect on CP55,940-induced CB1R internalization (fraction of CB1R at the plasma membrane)",CB1R [13],reversed this effect
same,"Emax, 2-AG (probe dependence summary)",CB1R [14]; mean of data for 2-AG (Tables 1-4),0.31 ± 0.02
same,"Emax, AEA (probe dependence summary)",CB1R [14]; mean of data for AEA (Tables 1-4),0.36 ± 0.03
same,"Emax, CP55,940 (probe dependence summary)","CB1R [14]; mean of data for CP55,940 (Tables 1-4)",0.33 ± 0.02
same,"Emax, HEK293A (cell dependence summary)",CB1R [14]; mean of data for HEK293A (Tables 1-3),0.34 ± 0.01
same,"Emax, Neuro2a (cell dependence summary)",CB1R [14]; mean of data for Neuro2a (Tables 1-3),0.32 ± 0.01
same,"Emax, STHdh^Q7/Q7 (cell dependence summary)",CB1R [14]; mean of data for STHdh^Q7/Q7 (Tables 1-3),0.34 ± 0.02
same,"effect on CP55,940 equilibrium binding by CB1R",CB1R [15],"increase CP55,940 equilibrium binding"
same,BF β-arrestin1/pERK1/2,CB1R [16]; [17],1.0
same,BF β-arrestin1/pPLCβ3,CB1R [16]; [17],1.0
same,BF β-arrestin1/pERK1/2,CB1R [16]; [18],1.3
same,BF β-arrestin1/pPLCβ3,CB1R [16]; [18],7.9
same,BF β-arrestin1/pERK1/2,CB1R [16]; [19],0.6
same,BF β-arrestin1/pPLCβ3,CB1R [16]; [19],5.0
